The source of these data is patent US20240254129A1, “HETEROCYCLIC COMPOUNDS AND USES THEREOF” (Kumquat Biosciences Inc., priority 2021, published 2024).

Structures are written as SMILES. Where only a bound is given, the exact number is not on record here.

Assay [1] deals with GST-tagged K-Ras mutant / His-tagged hSOS1 (Homo sapiens, UniProt P01116). Briefly: HTRF assay, K-Ras mutant / SOS1 interaction. Format: binding. The conditions noted are these: compound nos. 102-196, general methodology of example 5; read-out: IC50 against mutant Kras. Summed up: (§1)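 Tagged proteins: GST-K-Ras (wt or mutant), His-hSOS1; labels anti-GST-Eu/anti-6His-XL665; HEPES pH 7.4 buffer with DTT, BSA, Igepal. Read ≥10 min post-mix at ex 337 nm; IC50 from ratiometric data, duplicates.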
Sequence of GST-tagged K-Ras mutant / His-tagged hSOS1 (P01116 whole entry G12D, form open): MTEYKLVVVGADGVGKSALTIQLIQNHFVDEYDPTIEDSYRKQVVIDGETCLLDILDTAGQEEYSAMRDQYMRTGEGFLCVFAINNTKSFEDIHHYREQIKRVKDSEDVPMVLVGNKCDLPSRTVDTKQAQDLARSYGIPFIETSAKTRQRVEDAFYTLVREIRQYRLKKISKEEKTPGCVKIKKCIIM

Assay [2] addresses T1, wildtype Kras / hSOS1 (Homo sapiens, UniProt P01116).
T1 construct: made in house; host or cells: E. coli BL21 (DE3)
Kind of assay: HTRF assay, wildtype Kras / SOS1 interaction. Format: binding. Conditions: compound nos. 102-196, general methodology of example 5; read-out: IC50 against wildtype Kras. Summed up:
as §1
(In general: In TR-FRET formats the signal depends on donor and acceptor labels being close together.)

T1 sequence (P01116 1-188 isoform P01116-2): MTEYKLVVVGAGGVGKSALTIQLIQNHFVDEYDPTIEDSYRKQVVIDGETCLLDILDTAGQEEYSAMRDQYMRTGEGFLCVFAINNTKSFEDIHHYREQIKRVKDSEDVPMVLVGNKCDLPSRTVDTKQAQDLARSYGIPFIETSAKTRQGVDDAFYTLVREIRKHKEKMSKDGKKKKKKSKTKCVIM

A word on the IC50: it is the point on the concentration scale where inhibition reaches its midpoint. `Nc1nc2c(-c3c(Cl)cc4c(N5CCCOCC5)nc(OC[C@@]56CCCN5C[C@H](F)C6)nc4c3F)ccc(F)c2s1` [Compound 154, 4-(6-chloro-8-fluoro-2-(((2R,7aS)-2-fluorotetra-hydro-1H-pyrrolizin-7a(5H)-yl)methoxy)-4-(1,4-oxazepan-4-yl)quin-azolin-7-yl)-7-fluoro-benzo[d]-thiazol-2-amine]: the half-inhibitory concentration (IC50) in assay [1] and in assay [2] was below 500 nM in each case.
As to `CN1CCC[C@H]1COc1nc(N2CCNCC(F)(F)C2)c2cc(Cl)c(-c3cccc4sc(N)nc34)c(OCc3ccccn3)c2n1` [Compound 155, 4-(6-chloro-4-(6,6-difluoro-1,4-diazepan-1-yl)-2-(((S)-1-methylpyrrolidin-2-yl)-methoxy)-8-(pyridin-2-yl-methoxy)quinazolin-7-yl)-benzo[d]thiazol-2-amine], the IC50 in assay [1] and in assay [2] was above 500 nM in each case.
`Nc1nc2c(-c3c(Cl)cc4c(N5CCOCC(O)C5)nc(OCC56CCCN5CCC6)nc4c3F)cccc2s1` (stereo not shown) [Compound 156, 4-(7-(2-aminobenzo[d]-thiazol-4-yl)-6-chloro-8-fluoro-2-((tetrahydro-1H-pyrrolizin-7a(5H)-yl)-methoxy)quinazolin-4-yl)-1,4-oxazepan-6-ol]: the IC50 in assay [1] and in assay [2] was below 500 nM throughout.
As to `Cc1cc2c(N3CCNCC(F)(F)C3)nc(OC[C@@H]3CCCN3C)nc2c(F)c1-c1cccc2sc(N)nc12` [Compound 157, 4-(4-(6,6-difluoro-1,4-diazepan-1-yl)-8-fluoro-6-methyl-2-(((S)-1-methyl-pyrrolidin-2-yl)methoxy)-quinazolin-7-yl)benzo[d]-thiazol-2-amine], the IC50 in assay [1] and in assay [2] was below 500 nM each time.
As for `CN1CCC[C@H]1COc1nc(N2CCNCC(F)(F)C2)c2cc(Cl)c(-c3cccc4oc(N)nc34)c(F)c2n1` [Compound 158, 4-(6-chloro-4-(6,6-difluoro-1,4-diazepan-1-yl)-8-fluoro-2-(((S)-1-methylpyrrolidin-2-yl)methoxy)quinazolin-7-yl)benzo[d]oxazol-2-amine], the half-maximal inhibitory concentration (IC50) in assay [1] and in assay [2] was below 500 nM in each case.
For `Nc1nc2c(-c3c(Cl)cc4c(N5CCOCC(O)C5)nc(OCC56CCCN5CCC6)nc4c3F)ccc(F)c2s1` (stereo not shown) [Compound 159, 4-(7-(2-amino-7-fluoro-benzo[d]thiazol-4-yl)-6-chloro-8-fluoro-2-((tetra-hydro-1H-pyrrolizin-7a(5H)-yl)methoxy)quinazolin-4-yl)-1,4-oxazepan-6-ol], the IC50 in assay [1] and in assay [2] was below 500 nM in each case.
As to `Nc1nc2c(-c3c(Cl)cc4c(N5CCOCC(O)C5)nc(OCC56CCCN5C[C@H](F)C6)nc4c3F)ccc(F)c2s1` (stereo partly drawn) [Compound 160, 4-(7-(2-amino-7-fluoro-benzo[d]thiazol-4-yl)-6-chloro-8-fluoro-2-(((2R)-2-fluorotetrahydro-1H-pyrrol-izin-7a(5H)-yl)methoxy)-quinazolin-4-yl)-1,4-oxazepan-6-ol], the IC50 in assay [1] is above 500 nM; in assay [2], below 500 nM.
The like results for `Nc1nc2c(-c3c(Cl)cc4c(N5CCNCC(O)C5)nc(OCC56CCCN5CCC6)nc4c3F)ccc(F)c2s1` (stereo not shown) [Compound 161, 1-(7-(2-amino-7-fluoro-benzo[d]thiazol-4-yl)-6-chloro-8-fluoro-2-((tetra-hydro-1H-pyrrolizin-7a(5H)-yl)methoxy)quinazolin-4-yl)-1,4-diazepan-6-ol] were, in that order, below 500 nM and below 500 nM.
For `Nc1nc2c(-c3c(Cl)cc4c(N5CCNCC(O)C5)nc(OCC56CCCN5C[C@H](F)C6)nc4c3F)ccc(F)c2s1` (stereo partly drawn) [Compound 162, 1-(7-(2-amino-7-fluoro-benzo[d]thiazol-4-yl)-6-chloro-8-fluoro-2-(((2R)-2-fluorotetrahydro-1H-pyrrol-izin-7a(5H)-yl)methoxy)-quinazolin-4-yl)-1,4-diazepan-6-ol] the same measures were below 500 nM and below 500 nM.
For `Nc1nc2c(-c3c(Cl)cc4c(N5CCNCC(F)C5)nc(OCC56CCCN5CCC6)nc4c3F)ccc(F)c2s1` (stereo not shown) [Compound 163, 4-(6-chloro-8-fluoro-4-(6-fluoro-1,4-diazepan-1-yl)-2-((tetrahydro-1H-pyrrolizin-7a(5H)-yl)methoxy)quin-azolin-7-yl)-7-fluorobenzo-[d]thiazol-2-amine] the same measures were below 500 nM and below 500 nM.
For the compound `Nc1nc2c(-c3c(Cl)cc4c(N5CCNCC(F)C5)nc(OC[C@@]56CCCN5C[C@H](F)C6)nc4c3F)ccc(F)c2s1` (stereo partly drawn) [Compound 164, 4-(6-chloro-8-fluoro-4-(6-fluoro-1,4-diazepan-1-yl)-2-(((2R,7aS)-2-fluorotetra-hydro-1H-pyrrolizin-7a(5H)-yl)methoxy)quinazolin-7-yl)-7-fluorobenzo[d]thiazol-2-amine], the half-inhibitory concentration (IC50) in assay [1] and in assay [2] was below 500 nM throughout.
For the compound `Nc1nc2c(-c3c(Cl)cc4c(N5CCOCC(N)C5)nc(OCC56CCCN5CCC6)nc4c3F)ccc(F)c2s1` (stereo not shown) [Compound 165, 4-(7-(2-amino-7-fluoro-benzo[d]thiazol-4-yl)-6-chloro-8-fluoro-2-((tetra-hydro-1H-pyrrolizin-7a(5H)-yl)methoxy)quinazolin-4-yl)-1,4-oxazepan-6-amine], the half-maximal inhibitory concentration (IC50) in assay [1] and in assay [2] was below 500 nM throughout.
Regarding `CN1CCC[C@H]1COc1nc(N2CCNCC(F)(F)C2)c2cc(Cl)c(-c3cccc4nc(N)oc34)c(F)c2n1` [Compound 166, 7-(6-chloro-4-(6,6-difluoro-1,4-diazepan-1-yl)-8-fluoro-2-(((S)-1-methylpyrrolidin-2-yl)methoxy)quinazolin-7-yl)benzo[d]oxazol-2-amine], the IC50 in assay [1] and in assay [2] was above 500 nM each time.
In the case of `Nc1nc2c(-c3c(Cl)cc4c(N5CCCOCC5)nc(OC[C@@]56CCCN5C[C@H](F)C6)nc4c3F)cccc2o1` [Compound 167], the IC50 in assay [1] and in assay [2] was below 500 nM in each case.
`Nc1nc2c(-c3c(Cl)cc4c(N5CCCCC(F)(F)C5)nc(OC[C@@]56CCCN5C[C@H](F)C6)nc4c3F)ccc(F)c2s1` [Compound 168, 4-(6-chloro-4-(3,3-difluoro-azepan-1-yl)-8-fluoro-2-(((2R,7aS)-2-fluorotetra-hydro-1H-pyrrolizin-7a(5H)-yl)methoxy)quinazolin-7-yl)-7-fluorobenzo[d]thiazol-2-amine]: the IC50 in assay [1] and in assay [2] was below 500 nM in each case.
For the compound `CN1CCC[C@H]1COc1nc(N2CCNCC(F)(F)C2)c2cc(Cl)c(-c3cccc4nc(O)oc34)c(F)c2n1` [Compound 169, 7-(6-chloro-4-(6,6-difluoro-1,4-diazepan-1-yl)-8-fluoro-2-(((S)-1-methylpyrrolidin-2-yl)methoxy)quinazolin-7-yl)benzo[d]oxazol-2-ol], the IC50 in assay [1] and in assay [2] was above 500 nM each time.
Turning to `CN1CCC[C@H]1COc1nc(N2CCNCC(F)(F)C2)c2cc(Cl)c(-c3cccc4cccc(Cl)c34)c(F)c2n1` [Compound 170, 6-chloro-7-(8-chloronaph-thalen-1-yl)-4-(6,6-difluoro-1,4-diazepan-1-yl)-8-fluoro-2-(((S)-1-methylpyrrolidin-2-yl)methoxy)quinazoline], the IC50 in assay [1] and in assay [2] was above 500 nM throughout.
